Data: patent publication US20090012179A1, “Use of Tyrphostins to Stimulate Neurite Outgrowth” (priority 2004, published 2009)
Entries after “also recorded” stand apart in the source; their conditions may differ. Where two headings read alike, the source gives them in different places.

Columns and labels:
[1] = Golomb et al. 1996; cited from earlier work
[2] = tested on: primary dopaminergic neuron cultures; assay: Neuroprotection against MPP+ in primary dopaminergic neuron cultures; assay type: cell-based, rat; conditions: MPP+ 25 μM; A9 added before or after MPP+; TH staining
Protocol: Primary cultures of rat embryonic SNc neuron cultures were grown on treated 12-well plates (for dopamine uptake) or coverslips (for neuroprotection) for 10 days as described in the Examples section. In FIG. 6A, the neurons were treated with different concentrations of A9 for 6 days before dopamine uptake was measured. Data=mean±SD (n=3). In FIG. […] Half of the medium was changed with fresh A9 on day 14. The neurons were fixed on day 16 and stained for tyrosine hydroxylase (TH, green) and total-ERK (red). Images were captured with fluorescence microscopy at magnification×100.
The dopaminergic neurons that have been cultured on poly-D-lysine treated coverslips or 12-well cell culture plates for 10 days are treated with vehicle or A9 at 1 nM, 10 nM, 100 nM, or 1 μM for 7 days. […] Half of the medium is changed with fresh medium containing A9 at day 4. To test the involvement of ERK and PI3K, inhibitors (including PD98059, SL327, wortmannin, and LY294002) are added with A9. […] The amount of HSV used and the best time to do functional assays is determined. To count the TH-positive neurons, the neurons on coverslips are fixed, stained for both tyrosine hydroxylase (TH) and total-ERK (control) at the end of A9 treatment and imaged with a conventional or confocal fluorescence microscope. […]

[3] = Solubility of A9 stock; assay type: physicochemical
Protocol: 5. Physical properties: A9 stock can be dissolved in ethanol, methylene chloride, or DMSO as high as 25 mg/ml. The stock of A9 can then be diluted in water or saline. The final concentration in saline can reach 10 mg/ml according to our experience. A9 is very stable in organic solvents and keeps its activity (indicated by its ability to stimulate ERK activation in NS20Y cells, data not shown) for 6 months at room temperature. […] In saline, its half-life was reported to be 4 days at 37° C. (Golumb, Atherosclerosis 125:171-182, 1996). […] A similar evaluation of the chemical nature of any tyrphostin can be used to determine if it is of use to induce neurite outgrowth and regeneration in a subject.

[4] = tested on: ERK; assay: ERK activation in primary rat neostriatal neuron cultures; assay type: cell-based
Protocol: Primary Neuronal Cultures: The substantia nigra or striatal region is dissected from 4 day-old Sprague-Dawley rats and incubated in minimum essential medium (MEM) containing 20 U/ml papain for 2 hours at 37° C. The tissue is then triturated using fire-polished Pasteur pipettes in MEM supplemented with 10% fetal bovine serum, 0.45% glucose, […] insulin, 0.5 mM glutamine, 100 U/ml penicillin, and 100 μg/ml streptomycin. Cells are plated on 18 mm diameter poly-D-lysine-coated glass coverslips (Fisher 12-545-84 18cir-1D) at a density of 75,000 cells per coverslip for immunofluorescence imaging or in 12-well or 6-well tissue culture plates for immunoblotting studies. […]
Cell stimulation, immunoblotting, and immunoprecipitation: Cells or neurons are grown in 6-well or 12-well plates to 80-90% confluence. […] After centrifugation (14,000×g at 4° C. for 15 minutes), the supernatant is collected and the protein concentration is measured and adjusted using RIPA^+ buffer. […] The proteins are transferred to PVDF membrane (Millipore), detected with the primary antibodies (including anti-active ERK; anti-p-Tyr clone 4G10, Upstate; anti-TH; anti-DAT, sigma, anti-β-tubulin, etc.) and visualized with the SuperSignal™ West Pico chemiluminescent kit (Pierce Biotechnology, Rockford, Ill.). The intensity of bands is quantified using ImageQuant™ 5.2 (Amersham). […]

[5] = tested on: ERK; assay: ERK activation in NS20Y neuroblastoma cells, immunoblotting for dually phosphorylated ERK; assay type: cell-based, mouse; conditions: dually phosphorylated ERK by immunoblotting

**Q.** With `CC(C)(C)c1cc(C=C(C#N)C#N)cc(C(C)(C)C)c1O` [A9, tyrphostin A9] as the compound, how does the Side effects [1] read?
**A.** has not been shown to produce obvious side effects

**Q.** What about the “Protective effect against neurotoxin MPP+” value [2] of the same compound?
**A.** robust protective effect; also recorded: neuroprotection against MPP^+

**Q.** And the solubility ([3]; aqueous with cosolvent or surfactant or cyclodextrin, kinetic from dmso stock, stock diluted in saline, read-out: Final concentration in saline)?
**A.** ≥ 10 mg/mL

**Q.** And the solubility ([3]; organic solvent or mixture, in ethanol, methylene chloride, or DMSO, read-out: Solubility of stock)?
**A.** ≤ 25 mg/mL

**Q.** And the “A9-stimulated ERK activation” value [4]?
**A.** also observed

**Q.** What about the ERK activation [5] of the same compound?
**A.** robust activation of ERK; also recorded: stimulated ERK activation in NS20Y cells in a time (FIG. 2A) and dose (FIG. 2B)-dependent manner; also recorded: induced robust and sustained ERK activation

**Q.** And the ERK activation ([5]; listed as tyrphostin A9)?
**A.** stimulated robust and sustained ERK activation in a time and dose-dependent manner
